Laboratory results: patent US8835644B2, “Broad spectrum benzothiophene-nitrothiazolide and other antimicrobials” (University of Virginia Patent Foundation, priority 2009, dated 2014)
≈ marks a conversion by molar mass, not a printed value. Read-outs that look alike come from different tables or passages of the source.

Assays:
C. difficile [1] = test: Disk diffusion (Kirby Bower), C. difficile; type: cell-based, Clostridium difficile; conditions: for Disk Diff (%) C. difficile: Nitazoxanide = 100, Thiophene analogues table; for Disk Diffusion (%) C. difficile: zone of inhibited growth as relative ratio to the zone for NTZ
Procedure, shortened: (§1)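 Twofold broth microdilution from 32 μg/ml down to 0.06, in LB for E. coli, Trypticase Soy for S. epidermidis (planktonic) and Brain Heart Infusion for C. jejuni. C. difficile: anaerobic disk diffusion on Wilkins Chalgrin agar, inhibition zone expressed as a ratio to the NTZ zone.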

C. difficile [2] = test: MIC by agar dilution, C. difficile; type: cell-based, Clostridium difficile
Protocol: A standard broth dilution protocol was used in 96 well microplates containing a standard dilution of the microorganism to be tested in 100 microliters of the appropriate medium. Appropriate medium: E. coli, LB medium; Staphylococcus strains, Trypticase Soy; and for H. pylori and C. jejuni, Brain Heart Infusion. The compounds to be tested were set at 32 μg/ml in 200 microliters in well one and then serially diluted to provide a range from 32 to 0.06. The wells were scored visually at 24 h. The well where there was no growth was recorded as the MIC. […]
(§2) Representative compounds of the invention were tested in a series of assays against a series of organisms as described above. […] The organisms tested include, C. difficile, H. pylori, C. jejuni, MRSA, S. epidermidis, and E. coli. S. epidermidis and E. coli were tested in the plank and biofilm assay. A disk diffusion assay was also used for C. difficile. Direct PFOR enzyme assays were also performed. All analogues and derivatives were not tested on every organism in every type of assay (the “-” in each table means that it was not tested).

E. coli = test: MIC testing by broth dilution, E. coli plank; type: cell-based, Escherichia coli
Procedure, shortened: as §1

S. epidermidis biofilm = S. epidermidis biofilm assay (activity tables); type: cell-based, Staphylococcus epidermidis; conditions: for MIC S. epidermidis Biofilm: Thiophene analogues table
Procedure, shortened: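 Overnight TSB cultures diluted to OD600 0.01 and grown static with compound (triplicate) at 37° C for 16 h; turbidity recorded for growth. Biofilm: washed wells ethanol-fixed, stained with 0.5% crystal violet, A570 read before and after 95% ethanol extraction; mean ± SD.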

H. pylori = test: MIC testing by broth dilution, H. pylori; type: cell-based, Helicobacter pylori
Procedure, shortened: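 Broth dilution MIC determination against H. pylori: a standard inoculum in 100 microliters of Brain Heart Infusion medium was placed in 96 well microplates. Test compounds began at 32 μg/ml in 200 microliters in well one and were serially diluted over a 32 to 0.06 range. After 24 h, plates were scored by eye and the first well without growth was recorded as the MIC.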

S. epidermidis = test: MIC testing by broth dilution, S. epidermidis plank; type: cell-based, Staphylococcus epidermidis
Procedure, shortened: as §1

MRSA = test: MIC testing by broth dilution, MRSA; type: cell-based, Staphylococcus aureus
Procedure, shortened: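 Values are broth-dilution MICs, defined as the well showing no growth on visual reading after 24 h; the tested range was 32 to 0.06 μg/ml, in organism-specific media (LB, Trypticase Soy, Brain Heart Infusion). The C. difficile entries come instead from anaerobic Kirby-Bauer disk zones, normalised to NTZ.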

E. coli biofilm = E. coli biofilm assay (activity tables); type: cell-based, Escherichia coli
Procedure, shortened: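 After 24 h static culture at 37 °C in wells containing NTZ, strain 042 (1:100 inoculum) biofilm was quantified by 0.5% crystal violet absorbance at 570 nm. Planktonic growth was taken from turbidity or LB plate counts as cfu/ml; all runs triplicate, reported as mean and SD.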

C. jejuni = test: MIC testing by broth dilution, C. jejuni; type: cell-based, Campylobacter jejuni
Procedure, shortened: as §1

[3] = tested on: PFOR (pyruvate ferredoxin oxidoreductase); test: Direct PFOR enzyme assay; type: biochemical
Protocol: as §2

[4] = Thiophene analogues table, read-out: MIC C. difficile
[5] = planktonic, Thiophene analogues table, read-out: MIC E. coli Plank
[6] = Thiophene analogues table, read-out: MIC H. pylori
[7] = planktonic, Thiophene analogues table, read-out: MIC S. epidermidis Plank
[8] = Thiophene analogues table, read-out: MIC MRSA
[9] = biofilm, Thiophene analogues table, read-out: MIC E. coli Biofilm
[10] = Thiophene analogues table, read-out: MIC C. jejuni
[11] = Clostridioides difficile, Thiophene analogues table, read-out: MIC C. difficile
[12] = Escherichia coli, planktonic, Thiophene analogues table, read-out: MIC E. coli Plank
[13] = Helicobacter pylori, Thiophene analogues table, read-out: MIC H. pylori
[14] = Staphylococcus aureus, MRSA, Thiophene analogues table, read-out: MIC MRSA
[15] = Escherichia coli, biofilm, Thiophene analogues table, read-out: MIC E. coli Biofilm
[16] = Campylobacter jejuni, Thiophene analogues table, read-out: MIC C. jejuni

Row | Structure (SMILES) | Disk Diff (%) C. difficile (C. difficile [1]) | MIC (C. difficile [2]; [4]) | MIC (E. coli; [5]) | MIC S. epidermidis Biofilm (S. epidermidis biofilm) | MIC (H. pylori; [6]) | MIC (S. epidermidis; [7]) | MIC (MRSA; [8]) | MIC (E. coli biofilm; [9]) | MIC (C. jejuni; [10]) | MIC (C. difficile [2]; [11]) | MIC (E. coli; [12]) | MIC (H. pylori; [13]) | MIC (MRSA; [14]) | MIC (E. coli biofilm; [15]) | MIC (C. jejuni; [16]) | Disk Diffusion (%) C. difficile (C. difficile [1]) | PFOR inhibition relative to nitazoxanide (=100) [3] | MIC (μM) S. epidermidis Biofilm (S. epidermidis biofilm) | PFOR inhibition relative to nitazoxanide (=100) ([3]; Thiophene analogues table) | also measured
1 | O=C(Nc1ncc([N+](=O)[O-])s1)c1cc2ccccc2s1 [VPC161180] | 81% | 13.1 µM (≈ 4 µg/mL) | 104.8 µM (≈ 32 µg/mL) | 19.7 µM (≈ 6.02 µg/mL) | 2.5 µM (≈ 0.763 µg/mL) | 13.1 µM (≈ 4 µg/mL) | 6.6 µM (≈ 2.02 µg/mL) | 104.8 µM (≈ 32 µg/mL) | 9.8 µM (≈ 2.99 µg/mL) | – | – | – | – | – | – | – | – | – | – | –
2 | O=C(Nc1ncc([N+](=O)[O-])s1)c1sc2ccccc2c1Cl [VPC161181] | 72% | – | – | 11.8 µM (≈ 4.01 µg/mL) | – | – | – | – | – | 11.8 µM (≈ 4.01 µg/mL) | 94.2 µM (≈ 32 µg/mL) | 2.2 µM (≈ 0.748 µg/mL) | 2.9 µM (≈ 0.985 µg/mL) | 94.2 µM (≈ 32 µg/mL) | 5.9 µM (≈ 2 µg/mL) | – | – | – | – | MIC (S. epidermidis; Staphylococcus epidermidis, planktonic, Thiophene analogues table, read-out: MIC S. epidermidis Plank): 5.9 µM (≈ 2 µg/mL)
3 | O=C(Nc1ncc([N+](=O)[O-])s1)c1cccc(C(F)(F)F)c1 [VPC161183, N-(5-Nitrothiazol-2-yl)-3-(trifluoromethyl)benzamide] | – | – | – | – | – | – | – | – | – | – | – | – | – | – | – | 95 ± 2% | 87% | 25.2 µM (≈ 7.99 µg/mL) | – | MIC (C. difficile [2]; Clostridioides difficile, read-out: MIC (μM) C. difficile): 12.6 µM (≈ 4 µg/mL); MIC (E. coli; Escherichia coli, 24 h, read-out: MIC (μM) E. coli Plank): 37.8 µM (≈ 12 µg/mL); MIC (H. pylori; Helicobacter pylori, 24 h, read-out: MIC (μM) H. pylori): 3.5 µM (≈ 1.11 µg/mL); MIC (MRSA; Staphylococcus aureus, MRSA, 24 h, read-out: MIC (μM) MRSA): 3.2 µM (≈ 1.02 µg/mL); MIC (E. coli biofilm; Escherichia coli, read-out: MIC (μM) E. coli Biofilm): 31.5 µM (≈ 9.99 µg/mL); MIC (C. jejuni; Campylobacter jejuni, 24 h, read-out: MIC (μM) C. jejuni): 4.7 µM (≈ 1.49 µg/mL)
4 | COc1cccc(C(=O)Nc2ncc([N+](=O)[O-])s2)c1 [VPC161193] | – | – | – | – | – | – | – | – | – | – | – | – | – | – | – | 73 ± 1% | 82% | 57.3 µM (≈ 16 µg/mL) | – | MIC (C. difficile [2]; agar dilution, anaerobic, Wilkins Chalgrin agar, read-out: MIC (μM) C. difficile): 28.6 µM (≈ 7.99 µg/mL); MIC (E. coli; broth dilution, LB medium, 24 h, read-out: MIC (μM) E. coli Plank): 114.6 µM (≈ 32 µg/mL); MIC (H. pylori; broth dilution, Brain Heart Infusion, 24 h, read-out: MIC (μM) H. pylori): 1.3 µM (≈ 0.363 µg/mL); MIC (S. epidermidis; broth dilution, Trypticase Soy, 24 h, read-out: MIC (μM) S. epidermidis Plank): 28.6 µM (≈ 7.99 µg/mL); MIC (MRSA; broth dilution, Trypticase Soy, 24 h, read-out: MIC (μM) MRSA): 14.3 µM (≈ 3.99 µg/mL); MIC (E. coli biofilm; biofilm, read-out: MIC (μM) E. coli Biofilm): 114.6 µM (≈ 32 µg/mL); MIC (C. jejuni; broth dilution, Brain Heart Infusion, 24 h, read-out: MIC (μM) C. jejuni): 7.2 µM (≈ 2.01 µg/mL)
5 | O=C(Nc1ncc([N+](=O)[O-])s1)c1cccs1 [VPC161195, N-(5-Nitrothiazol-2-yl)thiophene-2-carboxamide] | 97% | – | – | 62.7 µM (≈ 16 µg/mL) | – | – | – | – | – | 31.3 µM (≈ 7.99 µg/mL) | 125 µM (≈ 32 µg/mL) | 2.9 µM (≈ 0.74 µg/mL) | 15.7 µM (≈ 4.01 µg/mL) | 125 µM (≈ 32 µg/mL) | 2.9 µM (≈ 0.74 µg/mL) | – | – | – | 88% | –
6 | O=C(Nc1ncc([N+](=O)[O-])s1)c1cc(Cl)sc1Cl [VPC161199] | 89% | 12.3 µM (≈ 3.99 µg/mL) | 98.7 µM (≈ 32 µg/mL) | 24.7 µM (≈ 8.01 µg/mL) | 1.5 µM (≈ 0.486 µg/mL) | 12.3 µM (≈ 3.99 µg/mL) | 6.2 µM (≈ 2.01 µg/mL) | 24.7 µM (≈ 8.01 µg/mL) | 2.3 µM (≈ 0.746 µg/mL) | – | – | – | – | – | – | – | – | – | 48% | –
